Earlier results, collected in patent US20100323985A1, “PHARMACEUTICAL OR COSMETIC PREPARATIONS FOR TOPICAL AND/OR PARENTERAL APPLICATION, PREPARATION METHODS THEREOF AND USE OF SAME” (priority 2007, published 2010).

Key:
[1] = humans
[2] = in vivo

excretion in the urine [1]: less than 1 % of total clearance | immunogenicity [2]: no immunogenicity
Substance: hyaluronic acid
tolerance [2]: very good
